# From ChEMBL document CHEMBL1129628, “Effect of ring size or an additional heteroatom on the potency and selectivity of bicyclic benzylamine-type inhibitors of phenylethanolamine N-methyltransferase” (J Med Chem, 1996)
# How the values were obtained:
# [1] = target: T1, Phenylethanolamine N-methyltransferase (Bos taurus, UniProt P10938); assay: In vitro for inhibition of Phenylethanolamine N-Methyltransferase (PNMT)
# T1 sequence (P10938 whole entry): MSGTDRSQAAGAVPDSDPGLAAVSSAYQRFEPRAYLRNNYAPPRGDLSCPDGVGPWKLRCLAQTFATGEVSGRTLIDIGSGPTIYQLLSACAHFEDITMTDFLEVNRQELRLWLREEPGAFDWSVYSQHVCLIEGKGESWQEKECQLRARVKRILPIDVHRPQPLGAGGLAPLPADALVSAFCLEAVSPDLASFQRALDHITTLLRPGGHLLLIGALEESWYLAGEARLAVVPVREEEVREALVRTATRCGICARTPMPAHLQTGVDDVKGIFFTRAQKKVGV
# [2] = Selectivity ratio between Ki of alpha-2 adrenoceptor and Ki of PNMT
# [3] = target: T2, Adrenergic receptor alpha-2 (Rattus norvegicus, UniProt P22086+P19328+P22909); assay: In vitro for binding affinity against Alpha-2 adrenergic receptor by radioligand [3H]clonidine in rat
# T2 sequence (P22086 whole entry): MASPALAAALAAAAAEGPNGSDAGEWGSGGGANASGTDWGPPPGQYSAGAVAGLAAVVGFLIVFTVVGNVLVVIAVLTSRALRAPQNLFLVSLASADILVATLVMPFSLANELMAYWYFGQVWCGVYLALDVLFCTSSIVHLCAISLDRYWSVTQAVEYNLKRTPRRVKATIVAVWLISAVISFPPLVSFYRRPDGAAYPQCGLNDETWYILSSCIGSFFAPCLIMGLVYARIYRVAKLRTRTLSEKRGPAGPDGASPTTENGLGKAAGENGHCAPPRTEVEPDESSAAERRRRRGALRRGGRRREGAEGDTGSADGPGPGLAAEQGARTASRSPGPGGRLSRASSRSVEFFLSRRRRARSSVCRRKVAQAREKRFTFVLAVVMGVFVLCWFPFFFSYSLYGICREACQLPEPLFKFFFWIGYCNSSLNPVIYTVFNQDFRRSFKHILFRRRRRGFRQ
# T2 sequence (P19328 whole entry): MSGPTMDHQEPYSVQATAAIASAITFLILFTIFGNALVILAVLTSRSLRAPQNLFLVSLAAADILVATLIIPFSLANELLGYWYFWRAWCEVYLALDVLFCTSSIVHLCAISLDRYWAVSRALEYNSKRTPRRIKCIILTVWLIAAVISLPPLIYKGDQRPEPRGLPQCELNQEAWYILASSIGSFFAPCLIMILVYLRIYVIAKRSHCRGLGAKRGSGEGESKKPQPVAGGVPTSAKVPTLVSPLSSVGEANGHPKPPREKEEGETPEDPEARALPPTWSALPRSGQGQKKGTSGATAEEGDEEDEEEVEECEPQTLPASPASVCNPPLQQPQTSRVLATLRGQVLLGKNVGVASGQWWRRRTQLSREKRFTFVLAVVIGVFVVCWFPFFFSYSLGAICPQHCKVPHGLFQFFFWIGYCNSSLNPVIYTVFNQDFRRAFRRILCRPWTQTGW
# T2 sequence (P22909 whole entry): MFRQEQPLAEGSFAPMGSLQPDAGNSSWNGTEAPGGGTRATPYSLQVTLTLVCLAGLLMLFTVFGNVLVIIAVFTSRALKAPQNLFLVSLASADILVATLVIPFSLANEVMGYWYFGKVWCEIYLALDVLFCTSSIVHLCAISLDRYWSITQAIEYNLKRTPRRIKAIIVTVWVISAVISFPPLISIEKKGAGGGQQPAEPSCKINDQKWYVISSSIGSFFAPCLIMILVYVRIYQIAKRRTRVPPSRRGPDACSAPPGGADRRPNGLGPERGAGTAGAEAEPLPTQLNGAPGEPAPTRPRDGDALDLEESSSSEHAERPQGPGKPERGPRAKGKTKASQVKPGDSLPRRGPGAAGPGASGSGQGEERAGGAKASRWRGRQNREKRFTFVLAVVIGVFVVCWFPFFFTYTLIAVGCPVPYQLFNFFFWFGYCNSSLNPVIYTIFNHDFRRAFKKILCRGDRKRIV
Compound,Ki [1] [µM],Ratio [2],Ki [3] [µM]
c1ccc2c(c1)CNC2,231,0.0035,0.82
c1ccc2c(c1)CNCCO2,21.2,0.19,4.1
CC1Cc2ccccc2CN1 (racemic),2.13,0.39,0.84
C[C@H]1Cc2ccccc2CN1,1.01,0.51,0.52
C[C@@H]1Cc2ccccc2CN1,38.3,0.16,6.2
"c1ccc2c(c1)CCNC2 [1,2,3,4-TETRAHYDROISOQUINOLINE]",9.67,[…],[…]
c1ccc2c(c1)CCCNC2,3.34,3.2,11

# Continued, values first:
Ki [1] [µM],Ratio [2],Ki [3] [µM],Compound
28,0.093,2.6,c1ccc2c(c1)CNCCN2
179,0.11,20,NCc1ccccc1 [BENZYLAMINE]
21.3,0.73,16,c1ccc2c(c1)CCCCNC2
4.1,1.1,4.6,c1ccc2c(c1)CNCCS2
